Measurements reported in US7538241B2, “Hsp90 family protein inhibitors” (Kyowa Hakko Kogyo Co., Ltd., priority 2003, dated 2009).

System: human mammary cancer-derived KPL-4 cells
Test: Cell growth inhibition test with KPL-4 cells (WST-1)
Type: cell-based
Conditions: KPL4, 72 hours, read-out: 50% growth inhibition concentration (GI50)
Method: In a 96-well plate (Nunc), human mammary cancer-derived KPL-4 cells were sown in an amount of 2000 cells/well, and pre-incubated in 10% fetal calf serum (FCS)-containing Dulbecco Modified Eagle Medium (DMEM) (incubation medium) in a 5% carbon dioxide incubator at 37° C. for 24 hours. A dimethylsulfoxide (DMSO) solution of a test compound controlled at 10 mmol/L was stepwise diluted with the incubation medium, and added to each well in a total amount of 100 μL/well, and incubated in the 5% carbon dioxide incubator at 37° C. for 72 hours. After the incubation, WST-1 {4-[3-(4-Iodophenyl)-2-(4-nitrophenyl)-2H-5-tetrazolio]-1,3-benzene disulfonate}-labeled mixture (Rosh Diagnostic) diluted 2-fold with the incubation medium was added thereto in an amount of 20 μL/well, and incubated in the 5% carbon dioxide incubator at 37° C. for 1 hour. Using a microplate spectrophotometer (Biorad's Model 550), the absorbance at 450 nm and 655 nm of each well was measured. The cell growth inhibition activity of the test compound was indicated by the 50% growth inhibition concentration (GI50) thereof. A method of calculating GI50 is described. The absorbance at 655 nm of each well was subtracted from the absorbance at 450 nm thereof to give a value (absorbance difference). The absorbance difference obtained with the cells without being treated with the test compound was taken as 100%, and this was compared with the absorbance difference obtained with the cells treated with the test compound to give the concentration of the compound for 50% cell growth inhibition, and this is referred to as GI50.

SMILES | GI50
COC(=O)Cc1cc(O)cc(O)c1-c1cccc(OC)c1 [Compound 81, Methyl 3,5-dihydroxy-2-(3-methoxyphenyl)phenylacetate] | ≤ 50 µM
COC(=O)Cc1cc(O)cc(O)c1-c1ccc(OC)cc1 [Compound 82, Methyl 3,5-dihydroxy-2-(4-methoxyphenyl)phenylacetate] | ≤ 50 µM
Oc1cc(O)c(-c2ccccc2)c(COCC2CCCO2)c1Br (stereo not drawn) [Compound 85, 6-Bromo-5-[(oxolan-2-ylmethoxy)methyl]-4-phenylbenzene-1,3-diol] | ≤ 50 µM
COC(=O)CCc1c(Br)c(O)cc(O)c1-c1ccccc1 [Compound 87, Methyl 3-(2-bromo-3,5-dihydroxy-6-phenylphenyl)propanoate] | ≤ 50 µM
COc1ccccc1N1CCN(C(=O)Cc2c(Br)c(O)cc(O)c2-c2ccccc2)CC1 [Compound 88, 2-(2-Bromo-3,5-dihydroxy-6-phenylphenyl)-1-[4-(2-methoxyphenyl)piperazin-1-yl]ethanone] | ≤ 50 µM
CN(CCc1ccccn1)C(=O)Cc1c(Br)c(O)cc(O)c1-c1ccccc1 [Compound 89, 2-(2-Bromo-3,5-dihydroxy-6-phenylphenyl)-N-methyl-N-[2-(pyridin-2-yl)ethyl]acetamide] | ≤ 50 µM
N#Cc1cccnc1N1CCN(C(=O)Cc2c(Br)c(O)cc(O)c2-c2ccccc2)CC1 [Compound 90, 2-(2-Bromo-3,5-dihydroxy-6-phenylphenyl)-1-[4-(3-cyanopyridin-2-yl)piperazin-1-yl]ethanone] | ≤ 50 µM
O=C(Cc1c(Br)c(O)cc(O)c1-c1ccccc1)N1CCN(C(=O)c2ccco2)CC1 [Compound 91, 2-(2-Bromo-3,5-dihydroxy-6-phenylphenyl)-1-[4-(2-furoyl)piperazin-1-yl]ethanone] | ≤ 50 µM
COCCc1c(CC(C)=O)c(O)cc(O)c1-c1ccccc1 [Compound 94, 1-[2,4-Dihydroxy-6-(2-methoxyethyl)-5-phenylphenyl]propanone] | ≤ 50 µM
CCCc1c(O)cc(O)c(-c2ccccc2)c1CCOC [Compound 95, 5-(2-Methoxyethyl)-4-phenyl-6-propylbenzene-1,3-diol] | ≤ 50 µM
COCCc1c(CC(C)C)c(O)cc(O)c1-c1ccccc1 [Compound 96, 6-Isobutyl-5-(2-methoxyethyl)-4-phenylbenzene-1,3-diol] | ≤ 50 µM
COCCCc1c(Br)c(O)cc(O)c1-c1ccccc1 [Compound 97, 6-Bromo-5-(3-methoxypropyl)-4-phenylbenzene-1,3-diol] | ≤ 50 µM
CNCCc1c(Br)c(O)cc(O)c1-c1ccccc1 [Compound 98, 6-Bromo-5-[2-(N-methylamino)ethyl]-4-phenylbenzene-1,3-diol] | ≤ 50 µM
CN(C)CCc1c(Br)c(O)cc(O)c1-c1ccccc1 [Compound 99, 6-Bromo-5-[2-(N,N-dimethylamino)ethyl]-4-phenylbenzene-1,3-diol] | ≤ 50 µM
COCCNCCc1c(Br)c(O)cc(O)c1-c1ccccc1 [Compound 100, 6-Bromo-5-{2-[N-(2-methoxyethyl)amino]ethyl}-4-phenylbenzene-1,3-diol] | ≤ 50 µM
COCCNCc1c(Br)c(O)cc(O)c1-c1ccccc1 [Compound 103, 6-Bromo-5-[N-(2-methoxyethyl)aminomethyl]-4-phenylbenzene-1,3-diol] | ≤ 50 µM
COCCc1c(Br)c(O)cc(O)c1-c1cccc(OC)c1 [Compound 105, 6-Bromo-5-(2-methoxyethyl)-4-(3-methoxyphenyl)benzene-1,3-diol] | ≤ 50 µM
COc1cccc(-c2c(O)cc(O)c(Br)c2CC(C)=NO)c1 [Compound 107, 6-Bromo-5-[2-(hydroxyimino)propyl]-4-(3-methoxyphenyl)benzene-1,3-diol] | ≤ 50 µM
Oc1cc(O)c(-c2ccccc2)c(CCOCC2CCCO2)c1Br (stereo not drawn) [Compound 109, 6-Bromo-5-[2-(oxolan-2-ylmethoxy)ethyl]-4-phenylbenzene-1,3-diol] | ≤ 50 µM
OCCOCCc1c(Br)c(O)cc(O)c1-c1ccccc1 [Compound 110, 6-Bromo-5-[2-(2-hydroxyethoxy)ethyl]-4-phenylbenzene-1,3-diol] | ≤ 50 µM
COCOCCc1c(Br)c(O)cc(O)c1-c1ccccc1 [Compound 111, 6-Bromo-5-[2-(methoxymethoxy)ethyl]-4-phenylbenzene-1,3-diol] | ≤ 50 µM
Oc1cc(O)c(-c2ccccc2)c(C2OCCO2)c1Br [Compound 112, 6-Bromo-5-(1,3-dioxolan-2-yl)-4-phenylbenzene-1,3-diol] | ≤ 50 µM
CC(=O)CCc1c(Br)c(O)cc(O)c1-c1ccccc1 [Compound 114, 4-(2-Bromo-3,5-dihydroxy-6-phenylphenyl)butan-2-one] | ≤ 50 µM

SMILES | GI50
CC(O)CCc1c(Br)c(O)cc(O)c1-c1ccccc1 (stereo not drawn) [Compound 115, 5-(3-Hydroxybutyl)-6-bromo-4-phenylbenzene-1,3-diol] | ≤ 50 µM
COCCc1c(Br)c(O)cc(O)c1-c1cccc(C(N)=O)c1 [Compound 117, 3-[5-Bromo-2,4-dihydroxy-6-(2-methoxyethyl)phenyl]benzamide] | ≤ 50 µM
COCCc1c(C(C)=O)c(O)cc(O)c1-c1cccc(C(=O)OC)c1 [Compound 119, Methyl 3-[5-acetyl-2,4-dihydroxy-6-(2-methoxyethyl)phenyl]benzoate] | ≤ 50 µM
COCCc1c(C(C)=O)c(O)cc(O)c1-c1cccc(-c2ccccc2)c1 [Compound 120, 1-[2,4-Dihydroxy-6-(2-methoxyethyl)-5-(3-phenylphenyl)phenyl]ethanone] | ≤ 50 µM
CCOc1cccc(-c2c(O)cc(O)c(C(C)=O)c2CCOC)c1 [Compound 121, 1-[2,4-Dihydroxy-5-(3-ethoxyphenyl)-6-(2-methoxyethyl)phenyl]ethanone] | ≤ 50 µM
CC(=O)c1c(O)cc(O)c(-c2ccccc2)c1CCCO [Compound 124, 1-[2,4-Dihydroxy-6-(3-hydroxypropyl)-5-phenylphenyl]ethanone] | ≤ 50 µM
COCCc1c(C(=O)C(F)(F)F)c(O)cc(O)c1-c1ccccc1 [Compound 125, 1-[2,4-Dihydroxy-6-(2-methoxyethyl)-5-phenylphenyl]-2,2,2-trifluoroethanone] | ≤ 50 µM
CCc1c(OC)cc(O)c(-c2ccccc2)c1CC(=O)OC [Compound 126, Methyl 6-ethyl-3-hydroxy-5-methoxy-2-phenylphenylacetate] | ≤ 50 µM
COCCc1c(C(=O)OC)c(O)cc(O)c1-c1ccccc1 [Compound 128, Methyl 2,4-dihydroxy-6-(2-methoxyethyl)-5-phenylbenzoate] | ≤ 50 µM
COCCc1c(OC)c(O)cc(O)c1-c1ccccc1 [Compound 129, 6-Methoxy-5-(2-methoxyethyl)-4-phenylbenzene-1,3-diol] | ≤ 50 µM
CCc1c(O)cc(O)c(-c2cccc(C(=O)OC)c2)c1CCOC [Compound 131, Methyl 3-[5-ethyl-2,4-dihydroxy-6-(2-methoxyethyl)phenyl]benzoate] | ≤ 50 µM
CCc1c(O)cc(O)c(-c2cccc(-c3ccccc3)c2)c1CCOC [Compound 132, 6-Ethyl-5-(2-methoxyethyl)-4-(3-phenylphenyl)benzene-1,3-diol] | ≤ 50 µM
CCOc1cccc(-c2c(O)cc(O)c(CC)c2CCOC)c1 [Compound 133, 4-(3-Ethoxyphenyl)-6-ethyl-5-(2-methoxyethyl)benzene-1,3-diol] | ≤ 50 µM
COCCc1c(C(C)=O)c(O)cc(O)c1-c1cccc(OCc2ccccc2)c1 [Compound 135, 1-[2,4-Dihydroxy-5-(3-benzyloxyphenyl)-6-(2-methoxyethyl)phenyl]ethanone] | ≤ 50 µM
COCCN(C)C(=O)Cc1c(C(C)=O)c(O)cc(O)c1-c1cccc(OC)c1 [Compound 141, 2-[2-Acetyl-3,5-dihydroxy-6-(3-methoxyphenyl)phenyl]-N-(2-methoxyethyl)-N-methylacetamide] | ≤ 50 µM
CCc1c(O)cc(O)c(-c2cccc(OC)c2)c1CC(=O)OC [Compound 142, Methyl 2-ethyl-3,5-dihydroxy-6-(3-methoxyphenyl)phenylacetate] | ≤ 50 µM
C=CCOCCc1c(CC)c(O)cc(O)c1-c1ccccc1 [Compound 144, 5-(2-Allyloxyethyl)-6-ethyl-4-phenylbenzene-1,3-diol] | ≤ 50 µM
CCc1c(O)cc(O)c(-c2cccc(OC)c2)c1CC(=O)N(C)CCOC [Compound 150, 2-[2-Ethyl-3,5-dihydroxy-6-(3-methoxyphenyl)phenyl]-N-(2-methoxyethyl)-N-methylacetamide] | ≤ 50 µM
COCCc1c(-c2ccccc2)c(O)cc(O)c1C(C)C [Compound 151, 6-Isopropyl-5-(2-methoxyethyl)-4-phenylbenzene-1,3-diol] | ≤ 50 µM
COCCOCCc1cc(OS(N)(=O)=O)cc(O)c1-c1ccccc1 [Compound 152, 3-(2-Methoxyethoxy)ethyl-2-phenyl-5-(sulfamoyloxy)phenol] | ≤ 50 µM
CCc1c(O)cc(O)c(-c2cccc(CCC(C)=O)c2)c1CCOCCOC [Compound 153, 4-(3-{5-Ethyl-2,4-dihydroxy-6-[2-(2-methoxyethoxy)ethyl]phenyl}phenyl)butan-2-one] | ≤ 50 µM
CCc1c(O)cc(O)c(-c2cccc(CCC(C)O)c2)c1CCOCCOC (stereo not drawn) [Compound 154, 6-Ethyl-4-[3-(3-hydroxybutyl)phenyl]-5-[2-(2-methoxyethoxy)ethyl]benzene-1,3-diol] | ≤ 50 µM
